{"source": "patent US10898510B2", "about": "“Sulphated hyaluronic acids functionalised with dopamine” (priority 2016, dated 2021)", "tested_on": "Staphylococcus aureus", "assay": "In vitro inhibition of S. aureus bacterial growth, titanium cylinder functionalized with HAS2-DOPA or HA-DOPA and Gentamicin", "type": "cell-based", "settings": "Daptomycin at the same concentrations instead of Gentamicin", "procedure": "The following were prepared:\na solution of HA-DOPA (23%, Example 12) in 0.1 M PBS, pH=8; […]\nIdentical treatment was applied to the other two titanium cylinders, of equal size, which were sprayed first with the HA-DOPA derivative solution and then with the Gentamicin solution, by the procedures described above.\nFinally, two other titanium cylinders, of identical size, were sprayed with the PBS solution and then with the Gentamicin solution, by the procedures described above.\nEach cylinder (total: 6) was then immersed once in MQ water for 5 seconds, left to air-dry for 15 minutes and inserted in a culture broth (Buffered Peptone Water: peptone 10.0 g/L, sodium chloride 5.0 g/L, anhydrous disodium phosphate 3.6 g/L, potassium phosphate 1.5 g/L, Biokar Diagnostics) inoculated with 600,000,000 CFU/mL of Staphylococcus aureus. The broth was incubated at 37° C., and at pre-set times (6 h, 12 h, 24 h, 48 h, 144 h) 1 mL of supernatant was taken up and diluted scalarly 1:10 (according to the bacterial growth), with sterile saline solution, for plate seeding (PCA—Plate Count Agar: tryptone 5.0 g/L, yeast extract 2.5 g/L, glucose 1.0 g/L, bacteriological agar 12.0 g/L. Manufactured by Biokar Diagnostics). The CFU/mL count was then conducted.\nThe percentage bacterial growth inhibition data over time compared with the initial inoculum of 600 million CFU/mL of S. aureus are set out in FIG. 4.", "data": [{"smiles": "CCCCCCCCCC(=O)N[C@@H](Cc1c[nH]c2ccccc12)C(=O)N[C@H](CC(N)=O)C(=O)N[C@@H](CC(=O)O)C(=O)N[C@@H]1C(=O)NCC(=O)N[C@@H](CCCN)C(=O)N[C@@H](CC(=O)O)C(=O)N[C@H](C)C(=O)N[C@@H](CC(=O)O)C(=O)NCC(=O)N[C@H](CO)C(=O)N[C@@H]([C@H](C)CC(=O)O)C(=O)N[C@@H](CC(=O)c2ccccc2N)C(=O)O[C@@H]1C", "note": "[Daptomycin]", "values": [{"measurement": "activity profile in similar experiment with Daptomycin", "result": "identical activity profile"}]}]}
